± gives the standard deviation of the averaged measurements.
Assays:
Assay in all cases: normalised growth rate inhibition (GR value) relative to DMSO control (GR (1 = untreated growth, 0 = cytostasis, <0 = cytotoxic)); higher = less growth inhibition
Conditions in all cases: 72 h
MCF7 = test system: MCF7
Protocol: (§1)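 Breast cancer cell lines (BT-20, Hs 578T, MCF 10A, MCF7, MDA-MB-231, SK-BR-3) were plated in 384-well plates and treated 24 h later with drugs at six concentrations (0.04-10 µM). Viable cells were counted by Hoechst/dead-cell-stain imaging at 0 and 72 h. Counts were normalised to DMSO controls on the same plate to give the relative cell count and the growth-rate inhibition (GR) value; technical plate triplicates were averaged for each biological replicate.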

MDAMB231 = test system: MDAMB231
Protocol: as §1

HS578T = test system: HS578T
Protocol: as §1

SKBR3 = test system: SKBR3
Protocol: as §1

BT20 = test system: BT20
Protocol: as §1

MCF10A = test system: MCF10A
Protocol: as §1

## OCCCNc1cc(-c2ccnc(Nc3cccc(Cl)c3)n2)ccn1
MCF7; 0.04 µM
  normalised growth rate inhibition: 0.312 ± 0.68
MCF7; 0.12 µM
  normalised growth rate inhibition: -0.264 ± 0.073
MCF7; 0.37 µM
  normalised growth rate inhibition: -0.315 ± 0.074
MCF7; 1.11 µM
  normalised growth rate inhibition: -0.332 ± 0.09
MCF7; 3.33 µM
  normalised growth rate inhibition: -0.363 ± 0.09
MCF7; 10 µM
  normalised growth rate inhibition: -0.429 ± 0.097
MDAMB231; 0.04 µM
  normalised growth rate inhibition: 0.257 ± 0.49
MDAMB231; 0.12 µM
  normalised growth rate inhibition: -0.139 ± 0.17
MDAMB231; 0.37 µM
  normalised growth rate inhibition: -0.226 ± 0.15
MDAMB231; 1.11 µM
  normalised growth rate inhibition: -0.295 ± 0.15
MDAMB231; 3.33 µM
  normalised growth rate inhibition: -0.318 ± 0.15
MDAMB231; 10 µM
  normalised growth rate inhibition: -0.319 ± 0.13
HS578T; 0.04 µM
  normalised growth rate inhibition: 0.343 ± 0.56
HS578T; 0.12 µM
  normalised growth rate inhibition: -0.0634 ± 0.17
HS578T; 0.37 µM
  normalised growth rate inhibition: -0.144 ± 0.099
HS578T; 1.11 µM
  normalised growth rate inhibition: -0.162 ± 0.09
HS578T; 3.33 µM
  normalised growth rate inhibition: -0.188 ± 0.14
HS578T; 10 µM
  normalised growth rate inhibition: -0.228 ± 0.13
SKBR3; 0.04 µM
  normalised growth rate inhibition: 0.398 ± 0.76
SKBR3; 0.12 µM
  normalised growth rate inhibition: 0.11 ± 0.49
SKBR3; 0.37 µM
  normalised growth rate inhibition: -0.227 ± 0.18
SKBR3; 1.11 µM
  normalised growth rate inhibition: -0.278 ± 0.16
SKBR3; 3.33 µM
  normalised growth rate inhibition: -0.344 ± 0.15
SKBR3; 10 µM
  normalised growth rate inhibition: -0.414 ± 0.18
BT20; 0.04 µM
  normalised growth rate inhibition: 0.32 ± 0.6
BT20; 0.12 µM
  normalised growth rate inhibition: -0.203 ± 0.17
BT20; 0.37 µM
  normalised growth rate inhibition: -0.291 ± 0.18
BT20; 1.11 µM
  normalised growth rate inhibition: -0.323 ± 0.18
BT20; 3.33 µM
  normalised growth rate inhibition: -0.37 ± 0.19
BT20; 10 µM
  normalised growth rate inhibition: -0.43 ± 0.17
MCF10A; 0.04 µM
  normalised growth rate inhibition: 0.263 ± 0.55
MCF10A; 0.12 µM
  normalised growth rate inhibition: -0.205 ± 0.21
MCF10A; 0.37 µM
  normalised growth rate inhibition: -0.228 ± 0.22
MCF10A; 1.11 µM
  normalised growth rate inhibition: -0.24 ± 0.21
MCF10A; 3.33 µM
  normalised growth rate inhibition: -0.242 ± 0.21
MCF10A; 10 µM
  normalised growth rate inhibition: -0.231 ± 0.16

## COc1cc(C(=O)NC2CCN(C)CC2)ccc1Nc1ncc2c(n1)N(C1CCCC1)CCC(=O)N2C(C)C
MCF7; 0.04 µM
  normalised growth rate inhibition: 0.764 ± 0.077
MCF7; 0.12 µM
  normalised growth rate inhibition: 0.84 ± 0.053
MCF7; 0.37 µM
  normalised growth rate inhibition: 0.858 ± 0.07
MCF7; 1.11 µM
  normalised growth rate inhibition: 0.807 ± 0.02
MCF7; 3.33 µM
  normalised growth rate inhibition: 0.758 ± 0.065
MCF7; 10 µM
  normalised growth rate inhibition: 0.298 ± 0.024
MDAMB231; 0.04 µM
  normalised growth rate inhibition: 0.765 ± 0.047
MDAMB231; 0.12 µM
  normalised growth rate inhibition: 0.884 ± 0.069
MDAMB231; 0.37 µM
  normalised growth rate inhibition: 0.86 ± 0.068
MDAMB231; 1.11 µM
  normalised growth rate inhibition: 0.834 ± 0.077
MDAMB231; 3.33 µM
  normalised growth rate inhibition: 0.767 ± 0.093
MDAMB231; 10 µM
  normalised growth rate inhibition: 0.308 ± 0.08
HS578T; 0.04 µM
  normalised growth rate inhibition: 0.972 ± 0.024
HS578T; 0.12 µM
  normalised growth rate inhibition: 0.964 ± 0.045
HS578T; 0.37 µM
  normalised growth rate inhibition: 0.93 ± 0.03
HS578T; 1.11 µM
  normalised growth rate inhibition: 0.917 ± 0.0095
HS578T; 3.33 µM
  normalised growth rate inhibition: 0.8447 ± 0.0079
HS578T; 10 µM
  normalised growth rate inhibition: 0.275 ± 0.079
SKBR3; 0.04 µM
  normalised growth rate inhibition: 0.601 ± 0.093
SKBR3; 0.12 µM
  normalised growth rate inhibition: 0.755 ± 0.053
SKBR3; 0.37 µM
  normalised growth rate inhibition: 0.775 ± 0.079
SKBR3; 1.11 µM
  normalised growth rate inhibition: 0.758 ± 0.088
SKBR3; 3.33 µM
  normalised growth rate inhibition: 0.787 ± 0.082
SKBR3; 10 µM
  normalised growth rate inhibition: 0.511 ± 0.17
BT20; 0.04 µM
  normalised growth rate inhibition: 0.783 ± 0.068
BT20; 0.12 µM
  normalised growth rate inhibition: 0.948 ± 0.1
BT20; 0.37 µM
  normalised growth rate inhibition: 0.933 ± 0.14
BT20; 1.11 µM
  normalised growth rate inhibition: 0.936 ± 0.11
BT20; 3.33 µM
  normalised growth rate inhibition: 0.888 ± 0.1
BT20; 10 µM
  normalised growth rate inhibition: 0.734 ± 0.15
MCF10A; 0.04 µM
  normalised growth rate inhibition: 0.975 ± 0.04
MCF10A; 0.12 µM
  normalised growth rate inhibition: 0.979 ± 0.045
MCF10A; 0.37 µM
  normalised growth rate inhibition: 0.984 ± 0.019
MCF10A; 1.11 µM
  normalised growth rate inhibition: 0.972 ± 0.024
MCF10A; 3.33 µM
  normalised growth rate inhibition: 0.948 ± 0.029
MCF10A; 10 µM
  normalised growth rate inhibition: 0.758 ± 0.086

## O=C(NOC[C@H](O)CO)c1ccc(F)c(F)c1Nc1ccc(I)cc1F
MCF7; 0.04 µM
  normalised growth rate inhibition: 0.608 ± 0.044
MCF7; 0.12 µM
  normalised growth rate inhibition: 0.539 ± 0.02
MCF7; 0.37 µM
  normalised growth rate inhibition: 0.503 ± 0.05
MCF7; 1.11 µM
  normalised growth rate inhibition: 0.442 ± 0.039
MCF7; 3.33 µM
  normalised growth rate inhibition: 0.254 ± 0.06
MCF7; 10 µM
  normalised growth rate inhibition: 0.0358 ± 0.091
MDAMB231; 0.04 µM
  normalised growth rate inhibition: 0.605 ± 0.043
MDAMB231; 0.12 µM
  normalised growth rate inhibition: 0.413 ± 0.029
MDAMB231; 0.37 µM
  normalised growth rate inhibition: 0.264 ± 0.033
MDAMB231; 1.11 µM
  normalised growth rate inhibition: 0.0779 ± 0.1
MDAMB231; 3.33 µM
  normalised growth rate inhibition: -0.0448 ± 0.12
MDAMB231; 10 µM
  normalised growth rate inhibition: -0.0975 ± 0.13
HS578T; 0.04 µM
  normalised growth rate inhibition: 0.513 ± 0.088
HS578T; 0.12 µM
  normalised growth rate inhibition: 0.402 ± 0.055
HS578T; 0.37 µM
  normalised growth rate inhibition: 0.328 ± 0.023
HS578T; 1.11 µM
  normalised growth rate inhibition: 0.247 ± 0.061
HS578T; 3.33 µM
  normalised growth rate inhibition: 0.119 ± 0.078
HS578T; 10 µM
  normalised growth rate inhibition: 0.0542 ± 0.11
SKBR3; 0.04 µM
  normalised growth rate inhibition: 0.953 ± 0.066
SKBR3; 0.12 µM
  normalised growth rate inhibition: 0.902 ± 0.057
SKBR3; 0.37 µM
  normalised growth rate inhibition: 0.913 ± 0.049
SKBR3; 1.11 µM
  normalised growth rate inhibition: 0.728 ± 0.027
SKBR3; 3.33 µM
  normalised growth rate inhibition: 0.445 ± 0.05
SKBR3; 10 µM
  normalised growth rate inhibition: 0.196 ± 0.14
BT20; 0.04 µM
  normalised growth rate inhibition: 0.907 ± 0.095
BT20; 0.12 µM
  normalised growth rate inhibition: 0.864 ± 0.059
BT20; 0.37 µM
  normalised growth rate inhibition: 0.838 ± 0.1
BT20; 1.11 µM
  normalised growth rate inhibition: 0.708 ± 0.14
BT20; 3.33 µM
  normalised growth rate inhibition: 0.565 ± 0.086
BT20; 10 µM
  normalised growth rate inhibition: 0.439 ± 0.064
MCF10A; 0.04 µM
  normalised growth rate inhibition: 0.263 ± 0.072
MCF10A; 0.12 µM
  normalised growth rate inhibition: 0.184 ± 0.072
MCF10A; 0.37 µM
  normalised growth rate inhibition: 0.175 ± 0.077
MCF10A; 1.11 µM
  normalised growth rate inhibition: 0.134 ± 0.083
MCF10A; 3.33 µM
  normalised growth rate inhibition: 0.0915 ± 0.085
MCF10A; 10 µM
  normalised growth rate inhibition: 0.0555 ± 0.074

## C#Cc1cccc(Nc2ncnc3cc(OCCOC)c(OCCOC)cc23)c1 [erlotinib]
MCF7; 0.04 µM
  normalised growth rate inhibition: 0.858 ± 0.069
MCF7; 0.12 µM
  normalised growth rate inhibition: 0.899 ± 0.074
MCF7; 0.37 µM
  normalised growth rate inhibition: 1.02 ± 0.024
MCF7; 1.11 µM
  normalised growth rate inhibition: 1.06 ± 0.047
MCF7; 3.33 µM
  normalised growth rate inhibition: 1.04 ± 0.04
MCF7; 10 µM
  normalised growth rate inhibition: 0.927 ± 0.074
MDAMB231; 0.04 µM
  normalised growth rate inhibition: 0.9 ± 0.058
MDAMB231; 0.12 µM
  normalised growth rate inhibition: 0.937 ± 0.032
MDAMB231; 0.37 µM
  normalised growth rate inhibition: 0.953 ± 0.035
MDAMB231; 1.11 µM
  normalised growth rate inhibition: 0.962 ± 0.036
MDAMB231; 3.33 µM
  normalised growth rate inhibition: 0.969 ± 0.016
MDAMB231; 10 µM
  normalised growth rate inhibition: 0.641 ± 0.069
HS578T; 0.04 µM
  normalised growth rate inhibition: 0.973 ± 0.015
HS578T; 0.12 µM
  normalised growth rate inhibition: 0.965 ± 0.023
HS578T; 0.37 µM
  normalised growth rate inhibition: 0.957 ± 0.012
HS578T; 1.11 µM
  normalised growth rate inhibition: 0.945 ± 0.019
HS578T; 3.33 µM
  normalised growth rate inhibition: 0.918 ± 0.016
HS578T; 10 µM
  normalised growth rate inhibition: 0.586 ± 0.073
SKBR3; 0.04 µM
  normalised growth rate inhibition: 0.756 ± 0.077
SKBR3; 0.12 µM
  normalised growth rate inhibition: 0.885 ± 0.06
SKBR3; 0.37 µM
  normalised growth rate inhibition: 0.946 ± 0.085
SKBR3; 1.11 µM
  normalised growth rate inhibition: 0.911 ± 0.072
SKBR3; 3.33 µM
  normalised growth rate inhibition: 0.868 ± 0.08
SKBR3; 10 µM
  normalised growth rate inhibition: 0.165 ± 0.12
BT20; 0.04 µM
  normalised growth rate inhibition: 0.861 ± 0.025
BT20; 0.12 µM
  normalised growth rate inhibition: 0.879 ± 0.049
BT20; 0.37 µM
  normalised growth rate inhibition: 0.902 ± 0.068
BT20; 1.11 µM
  normalised growth rate inhibition: 0.834 ± 0.032
BT20; 3.33 µM
  normalised growth rate inhibition: 0.856 ± 0.049
BT20; 10 µM
  normalised growth rate inhibition: 0.547 ± 0.057
MCF10A; 0.04 µM
  normalised growth rate inhibition: 0.973 ± 0.013
MCF10A; 0.12 µM
  normalised growth rate inhibition: 0.829 ± 0.14
MCF10A; 0.37 µM
  normalised growth rate inhibition: 0.432 ± 0.17
MCF10A; 1.11 µM
  normalised growth rate inhibition: 0.107 ± 0.053
MCF10A; 3.33 µM
  normalised growth rate inhibition: 0.132 ± 0.065
MCF10A; 10 µM
  normalised growth rate inhibition: 0.136 ± 0.036

Source: the supplement of paper PMC5662764
